Results reported in patent US8455523B2, “Compositions and methods for treating hyperlipidemias” (The Research Foundation of State University of New York, priority 2010, dated 2013).

Tests used:
[1] = test system: C57Bl/6J mice fed western diet; assay: MTP inhibitor CP-346086 with or without lovastatin or WY14643 in western diet fed mice: plasma/hepatic lipids, AST/ALT; format: in vivo; conditions: for hepatic cholesterol (total, free and esterified): co-drug given with MTPi, compared to MTPi group
Description: FIGS. 4a and 4b. Effect of MTP inhibitor (CP-34086) on plasma lipids and lipoproteins in C57Bl/6J mice fed western diet ad libitum for 8 weeks. MTP inhibitor solubilzed in DMSO was administered orally for one week (15 mg/kg/day) along with either DMSO (MTPi), lovastatin (50 mg/kg/day), or WY14643 (10 mg/kg/day). Control mice were gavaged with DMSO only.
FIGS. 5a and 5b. Liver samples from FIG. 4 were used to measure MTP activity (A) and hepatic lipids (B-E). Stars on MPTi group represent comparison between Control and MTPi groups.
Control group (n=4) received daily oral gavage of DMSO alone. MTPi group received 15 mg/kg/day MTP inhibitor CP-346086 (MTPi) once daily. […] Plasma total and HDL cholesterol were unaffected by MTPi. Combined treatment of MTPi and lovastatin decreased plasma LDL cholesterol. […] Next, we measured changes in plasma hepatic enzymes (FIGS. 4G-H). […] These studies indicate that apart from lowering plasma triglyceride, MTPi enhances plasma AST/ALT and these increases can be avoided by the co-administration of lovastatin.

mice fed western diet = assay: MTPi with or without pioglitazone or lovastatin in mice fed western diet for five weeks (Example III); conditions: for cellular cholesteryl esters (liver) / hepatic free cholesterol / hepatic triglycerides: MTPi vs control
Description: FIGS. 7a and 7b. Mice were fed western diet for five weeks. […] Livers were collected and used to measure MTP activity (A), triglyceride (B), total cholesterol (C), free cholesterol (D), esterified cholesterol (E) and free fatty acids (F).
FIGS. 8a and 8b. Plasma was obtained from animals described in FIG. 7 and used to measure triglyceride (A) and cholesterol (B) in apoB-lipoproteins. In addition, HDL cholesterol (C), plasma free fatty acids (D), ALT (E), and AST (F) levels were measured.

[2] = test system: C57Bl/6J mice fed either a chow or western diet; assay: MTP inhibitor BMS-212122-01 with or without lovastatin, pioglitazone or PBA in chow or western diet fed C57Bl/6J mice; format: in vivo; conditions: for hepatic triglycerides: MTPi 1 mg/kg/day one week, lovastatin 50 or pioglitazone 25 mg/kg/day added to MTPi; for plasma ALT/AST levels: lovastatin added to MTPi; for hepatic free cholesterol: lovastatin or pioglitazone co-administered with MTPi; for Hepatic free fatty acids (FFA): lovastatin or pioglitazone with MTPi; for hepatic total and free cholesterol / hepatic triglycerides compared to western diet fed controls / plasma lipids: drug alone, one week
Description: FIG. 13. Age matched wildtype C57/Bl6J animals chow fed animals were treated with DMSO (control) or MTP inhibitor (MTPi) for one week. […] All drugs were administered by oral gavage. Animals were sacrificed on day 7 and plasma and livers were harvested and analyzed. * represent comparison to DMSO control; # represent comparisons to WD control; @ represent comparisons to WD MTP inhibitor treatment.
FIG. 18. Age matched wildtype C57/BL6J were fed WD for one month and were administered MTPi, or 4-phenylbutyric acid (PBA) everyday for one week. All drugs were administered by oral gavage. Animals were sacrificed on day 7 and livers were harvested. * represent comparison DMSO control; # represent comparisons to HF MTP inhibitor treated animals.
C57BL/6J Black 6 mice (stock number 000664) were obtained from Jackson Laboratory and used for chow fed and western diet fed experiments. MTP inhibitor (BMS […]) (1 mg/kg/day), Lovastatin, Pioglitazone (Toronto Research Chemicals P471000) (25 mg/kg/day) and 4-phenylbutyric acid (Calbiochem 820986) (1 g/kg/day) were administered by oral gavage. Chow fed animals were treated for one week with either DMSO or MTP inhibitor. Western diet fed animals were fed DMSO, MTP inhibitor, Pioglitazone, MTP inhibitor+Pioglitazone, Lovastatin, MTP inhibitor+Lovastatin, 4-phenylbutyric acid, and MTP inhibitor+4-phenylbutyric acid. Chow fed animals were also injected with either PBS or Tunicamycin and animals were sacrificed at 4, 8, 12 and 24 hours.
All animals were kept in 07:00-19:00 h lighting schedule. […] Food was withdrawn 16 h before the sacrifice of the mice. On the day of the experiment, mice were anesthetized and blood was collected from the heart. Liver was collected, washed in ice-cold PBS, cut into small pieces and used for lipid extraction, histological staining, to measure different protein activities/quantities and for mRNA analysis. Lipids were extracted from the tissue homogenates following the Bligh and Dyer method. Triglyceride (Infinity TM Triglyceride, TR22421) and total cholesterol (Infinity TM Cholesterol, TR13421) levels in the tissues were determined using commercial kits (Thermo Scientific). Free cholesterol and free fatty acid levels were measured using kits from Wako Chemicals (Germany). Esterified cholesterol was calculated by subtracting the free cholesterol from the total cholesterol.
We next studied the effects of chemical inhibition of MTP in C57Bl/6J mice fed either a chow or western diet (WD) for 5 weeks. Chow fed animals were orally gavaged with either DMSO or MTP inhibitor BMS-212122-01 (MTPi; 1 mg/kg/day) for one week. WD fed animals were treated with DMSO, MTP inhibitor with or without lovastatin (50 mg/kg/day) or pioglitazone (25 mg/kg/day) daily by oral gavage for one week.

[3] = WD five weeks, treatment in last week, co-drugs with MTPi

| Compound | hepatic cholesterol (total, free and esterified) [1] | cellular cholesteryl esters (liver) (mice fed western diet; [3]) | hepatic free cholesterol (mice fed western diet; [3]) | hepatic triglycerides (mice fed western diet; [3]) | plasma HDL cholesterol (mice fed western diet; [3]) | hepatic free cholesterol ([2]; MTPi one week) | Hepatic free fatty acids (FFA) ([2]; MTPi one week) | hepatic total and free cholesterol ([2]; WD fed) | hepatic triglycerides compared to western diet fed controls ([2]; WD fed) | plasma lipids ([2]; WD fed) | also measured |
| --- | --- | --- | --- | --- | --- | --- | --- | --- | --- | --- | --- |
| CC[C@H](C)C(=O)O[C@H]1C[C@@H](C)C=C2C=C[C@H](C)[C@H](CC[C@@H]3C[C@@H](O)CC(=O)O3)[C@H]21 [lovastatin] | significantly lower | increased | not seen | not affected | slightly increased | reduced | resistant | decreased | no effect | no effect | AST/ALT levels (plasma) (mice fed western diet; [3]): significantly lower; plasma free fatty acids (mice fed western diet; [3]): not affected; hepatic triglycerides ([2]; listed as Lovastatin): without affecting; plasma ALT/AST levels ([2]; MTPi one week): lowered; plasma ALT/AST levels ([2]; MTPi one week, listed as Lovastatin): abrogated increases; Cardiac tissue lipid profiles ([2]; WD fed, MTPi ± pioglitazone or lovastatin): no changes; intestinal lipids ([2]; WD fed, with MTPi): no effect |
| Cc1cccc(Nc2cc(Cl)nc(SCC(=O)O)n2)c1C [WY14643] | no significant effect | – | – | – | – | – | – | – | – | – | plasma AST/ALT ([1]; WD 8 weeks, CP-346086 15 mg/kg/day 1 week ± lovastatin 50 or WY14643 10 mg/kg/day, MTPi vs control, co-drugs vs MTPi): no significant effect; plasma lipids ([1]; WD 8 weeks, WY14643 10 mg/kg/day given along with MTPi, 1 week): did not affect |
| CCc1ccc(CCOc2ccc(CC3SC(=O)NC3=O)cc2)nc1 (racemic) [pioglitazone, (RS)-5-(4-[2-(5-ethylpyridin-2-yl)ethoxy]benzyl)thiazolidine-2,4-dione] | – | increased | not seen | avoided increases | slightly increased | reduced | resistant | decreased | slightly lower | no effect | AST/ALT levels (plasma) (mice fed western diet; mouse, in vivo): significantly lower; hepatic triglycerides [2]: abrogated; rise in intestinal free cholesterol seen with MTPi alone ([2]; WD fed, in conjunction with MTPi): attenuated; Plasma FFA levels ([2]; high fat feeding, MTPi one week, co-drugs with MTPi): completely abrogated |
